Values of other authors as cited in patent US20220287347A1, “PEPTIDES FOR TREATING MUSCLE ATROPHY” (NURITAS LIMITED, priority 2019, published 2022).

How the values were obtained:
[1] = binding to lipoproteins

Q: For `C[C@@H](O)[C@@H]1NC(=O)[C@H](CCCCN)NC(=O)[C@@H](Cc2c[nH]c3ccccc23)NC(=O)[C@H](Cc2ccccc2)NC(=O)[C@@H](NC(=O)[C@H](N)Cc2ccccc2)CSSC[C@@H](C(=O)N[C@H](CO)[C@@H](C)O)NC1=O` [octreotide], which half-life in humans is on record?
A: about 100 min

Q: And the fraction unbound [1]?
A: 0.65

Q: For `NC(=O)CC[C@@H]1NC(=O)[C@H](Cc2ccccc2)NC(=O)[C@H](Cc2ccc(O)cc2)NC(=O)[C@@H](N)CSSC[C@@H](C(=O)N2CCC[C@H]2C(=O)N[C@@H](CCCN=C(N)N)C(=O)NCC(N)=O)NC(=O)[C@H](CC(N)=O)NC1=O` [vasopressin], which half-life in humans is on record?
A: 10 to 35 min
